Laboratory results reported in a melting point compilation (Tetko et al.; mined from patent text by program, amines drawn as free bases though some values may be those of a salt).

SMILES | melting point [°C]
COc1cc2c(=O)oc(=O)[nH]c2c(OC)c1OC | 247
CNC(=O)CC=C(CC(C)C)C(=O)O | 120 to 122
O=C(NCc1cccs1)Nc1cc(N2CC(c3ccccc3)CC2=O)ccn1 (stereo not given) | 179 to 180
C#CCOc1cc(-c2ccc(S(C)(=O)=O)cc2)c(-c2ccc(F)cc2)c(C(F)(F)F)n1 | 138 to 139
Cc1nc(N)c2nc(CONC(C)C)n(CCCCNC(=O)C(C)C)c2c1C | 156 to 157
CC(C)(C)ON=Cc1ncn2c1[C@@H]1CCCN1C(=O)c1c(Cl)cccc1-2 | 215 to 216
CC1CCC(CCC(=O)O)(CCC(=O)O)C(=O)C1(CCC(=O)O)CCC(=O)O (stereo not given) | 210 to 213
COc1ccc(S(=O)(=O)C(CCCc2ccccc2)(CCCc2ccccc2)C(=O)O)cc1 | 118 to 120
COc1ccc2c(c1)CCCC2(N)CO (stereo not given) | 89 to 95.6
O=C(N[C@H](Cc1cccc(OCC(F)(F)F)c1)[C@@H](O)c1ccc(F)cc1)c1cccc2c1C=CCCC2 (racemic) | 172 to 173
O=C(NCCO[N+](=O)[O-])Oc1ccccc1 | 61 to 62
COC(=O)N(C(=O)c1ccc(C2=NOC(c3cc(Cl)cc(Cl)c3)(C(F)(F)F)C2)cc1C)c1cncnc1 (stereo not given) | 72 to 76
CCc1cccc(CC)c1NC(=S)NC(C)(C)CC | 85 to 87
O=C(O)C1CSC(c2ccc(OCCO[N+](=O)[O-])cc2)N1 (stereo not given) | 139 to 141
CO[C@H](C)C(=O)N[C@H]1CC[C@H](CCN2CCN(c3nccc4c3OCC4)CC2)CC1 | 170
CCCCCCOc1ccc(-n2cc(C(=O)OCC)cn2)cc1C#N | 93 to 94
COC(=O)CNc1cccc(C(N)=O)c1 | 146 to 147
CC(C)c1cc(Cl)cc(C(C)C)c1NC(=O)NS(=O)(=O)c1cccc(C2(C)OCCO2)c1 | 155 to 157
COc1ccc2nc3c(cc2c1)c(N)nn3C | 185 to 186
CCOc1nc(=O)n(C(=O)NC(Cl)=C(Cl)Cl)s1 | 123
COc1ccc(C(=O)c2ccc(-n3ccnc3)cc2)cc1OC | 149 to 151
CCOC(=O)C1CCc2c(sc3ccc(C)cc23)C1 (stereo not given) | 68 to 69
CC(C)(C)OC(=O)c1ncn2c1CN(C(=O)N1CCOCC1)c1cc(F)ccc1-2 | 196

Next, values leading:

melting point [°C] | SMILES
148 to 150 | O=S(=O)(NCCc1ccc(Nc2nnn[nH]2)cc1)c1ccc(Cl)cc1
265 to 267 | COC(=O)c1cc2c(O)c(C(=O)NCc3ccc(Cl)cc3)cnc2nc1C
104 to 105 | Cc1ccc(C2COc3c(C)c(C)c(NCc4ccccc4)c(C)c32)nc1 (stereo not given)
63 to 64 | COc1ccc(-c2nc(OCC(F)(F)F)nn2-c2ccc(OC)nc2)cc1
122 | CCCC(C)(O)C(=O)Nc1ccnc(C(=O)OC)c1 (stereo not given)
80 to 81 | Cc1ccc(Sc2ccnc(Cl)n2)cc1
144 to 146 | COC(=O)c1cccc(NC(=O)C=Cc2ccc(OC)c(OC)c2)c1N
182 to 183 | CC(=O)C(=CNN1C=CC=NC1c1ccncc1)C(C)=O (stereo not given)
> 260 | Cc1ccc(NC(=O)NCc2cccc3c2CN(C2CCC(=O)NC2=O)C3=O)cc1C (stereo not given)
139 | Cc1ccccc1-c1nc2ccccc2n1Cc1c(F)cccc1F
131 to 132 | COC(=O)c1c(C)c(N=O)c2ccccn12
128 to 129 | CCOC(=O)CCc1cc(O)nn1Cc1ccccc1
96 to 98 | Cc1ccccc1CN(CC(=O)OC(C)(C)C)S(=O)(=O)c1ccc2c(Cl)cnc(Cl)c2c1
165 to 166 | O=C(O)CCCNC(=O)c1ccccc1NC(=O)c1cccc(Cl)c1
146 to 147 | COCCOCc1c(CN(C)C[C@@H](O)c2ccco2)sc2c(=O)c(C(=O)NCc3ccc(Cl)cc3)cn(C)c12
117 to 120 | COC(=O)C1=Cc2cc(-c3ccc(OC)cc3)ccc2SCC1
92 to 94 | CCOC(=O)Cc1cc(Cl)cc(C(=O)c2ccc(Br)cc2)c1N
